Laboratory results taken from US20260042753A1 (Merck Patent GmbH, priority 2019, published 2026).
Where two headings read alike, the source gives them in different places.

Key:
c-Kit(V654A) = c-Kit(V654A) (Homo sapiens, UniProt P10721, V654A); assay: c-Kit(V654A) assay; format: biochemical
Method: c-Kit(V654A) (N-terminal GST-tagged, recombinant human c-Kit, amino acids 544-end containing the V654A mutation) is incubated with 8 mM MOPS pH 7.0, 0.2 mM EDTA, 250 μM GGMEDIYEFMGGKKK, 10 mM MgAcetate and [gamma-33P-ATP](specific activity approx. 500 cpm/pmol, concentration 200 μM). The reaction is initiated by the addition of the MgATP mix. After incubation for 40 minutes at room temperature, the reaction is stopped by the addition of 3% phosphoric acid solution. 10 μL of the reaction is then spotted onto a P30 filtermat and washed three times for 5 minutes in 75 mM phosphoric acid and once in methanol prior to drying and scintillation counting.

[1] = molecular target: mutant cKIT (560-576 and V654A) in GIST430/654 cell line (Homo sapiens (Human), UniProt P10721, DEL560-576/V654A); assay: Cellular testing of cKIT mutant inhibitors: phospho-Y307-cKIT Luminex assay in GIST430/654 cells; format: cell-based; details: read-out: GIST 430/654 IC50
Method: Assay Principle for Cellular Testing of cKIT Mutant Inhibitors
The GIST430/654 cell line expressing mutated constitutively active cKIT receptor tyrosine kinase ([…]560-576 and V654A) was employed for assessing cellular potency of compounds. Cellular activity of mutant cKIT was determined by the degree of cKIT autophosphorylation at tyrosine 307 using a Luminex-based bead assay. GIST430/654 cells were plated with 25,000 cells per well of a 96-well plate in 100 μl medium (85% IMDM/15% FCS supplemented with 100 nM Imatinib). At the following day compounds were added in a serial dilution for 45 min. Then, cells were lysed with 90 μl lysis buffer (20 mM Hepes pH 7.5, 200 mM NaCl, 1.5 mM MgCl2×6H2O, 0.4 mM EDTA, 1% Triton-X-100, 1% Phosphatase-Inhibitor II, 20 mM D-Glycerolphosphat, 0.1% Protease-Inhibitor Cocktail III, 0.01% Benzonase) und lysates were cleared by centrifugation through a 96-well filter plate (0.65 μm). Samples were incubated with Luminex-beads which were coupled with an anti-total cKIT antibody overnight at 4° C. under gentle agitation. For detection of phospho-Y307-cKIT a phosphospecific antibody and a species-specific PE-labelled secondary antibody were added. The amount of phospho-Y307-cKIT was determined in a Luminex 200 instrument measuring 100 events per well within 60 seconds.
Counts from samples treated with compounds were calculated as percent of control from solvent treated (0.3% DMSO) samples. Dose-response curves were fitted and IC50 values were determined using Genedata Screener software.

[2] = Table 2, isoxazole derivatives presently described
[3] = Table 1, cKIT autophosphorylation, compounds 45 min
[4] = Table 2, corresponding triazole derivatives

mutant cKIT (560-576 and V654A) in GIST430/654 cell line, sequence (P10721 other isoform, or with tags, fused parts or gaps V654A/del 1-25/del 560-576 limits assumed): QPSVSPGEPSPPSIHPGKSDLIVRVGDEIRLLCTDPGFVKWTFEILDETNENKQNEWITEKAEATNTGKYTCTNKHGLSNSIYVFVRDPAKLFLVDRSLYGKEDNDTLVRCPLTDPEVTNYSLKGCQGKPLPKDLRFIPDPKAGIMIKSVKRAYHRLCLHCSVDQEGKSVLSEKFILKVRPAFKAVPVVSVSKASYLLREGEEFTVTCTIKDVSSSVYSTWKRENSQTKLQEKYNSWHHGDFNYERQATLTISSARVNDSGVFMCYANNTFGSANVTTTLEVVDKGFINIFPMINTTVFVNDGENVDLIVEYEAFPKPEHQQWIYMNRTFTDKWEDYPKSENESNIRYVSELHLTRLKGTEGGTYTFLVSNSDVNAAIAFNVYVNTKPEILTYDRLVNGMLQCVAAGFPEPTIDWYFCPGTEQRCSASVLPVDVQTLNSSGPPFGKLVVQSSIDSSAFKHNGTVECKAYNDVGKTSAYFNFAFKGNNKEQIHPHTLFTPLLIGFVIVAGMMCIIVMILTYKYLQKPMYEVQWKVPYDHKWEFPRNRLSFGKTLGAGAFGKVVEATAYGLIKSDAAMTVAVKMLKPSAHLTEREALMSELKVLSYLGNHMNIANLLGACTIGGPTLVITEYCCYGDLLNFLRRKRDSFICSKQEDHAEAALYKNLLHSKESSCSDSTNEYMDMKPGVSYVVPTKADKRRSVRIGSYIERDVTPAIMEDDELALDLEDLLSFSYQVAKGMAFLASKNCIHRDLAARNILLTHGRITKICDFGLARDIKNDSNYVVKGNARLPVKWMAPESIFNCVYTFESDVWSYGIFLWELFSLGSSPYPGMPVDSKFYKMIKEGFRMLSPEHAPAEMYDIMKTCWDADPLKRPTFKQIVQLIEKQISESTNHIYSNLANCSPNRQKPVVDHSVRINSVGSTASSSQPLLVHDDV

Row | IC50 (c-Kit(V654A); Table 1, 200 μM ATP) [nM] | IC50 [1, 3] [nM] | SMILES | other results
1 | 5.6 | 53 | COCCOc1cc2[nH]nc(-c3cc(-c4ccc(C(=O)N5CCC[C@H]5C(C)(C)O)nc4)no3)c2cc1F [A107, 2-[(2S)-1-(5-{5-[5-fluoro-6-(2-methoxyethoxy)-1H-indazol-3-yl]-1,2-oxazol-3-yl}pyridine-2-carbonyl)pyrrolidin-2-yl]propan-2-ol] | 
2 | 5.9 | 140 | COCCOc1cc2[nH]nc(-c3cc(-c4ccc(-n5nc(C)ccc5=O)cc4)no3)c2cc1F [A136, 2-(4-{5-[5-fluoro-6-(2-methoxy-ethoxy)-1H-indazol-3-yl]-isoxazol-3-yl}-phenyl)-6-methyl-2H-pyridazin-3-one] | 
3 | 21 | 740 | COCCOc1cc2[nH]nc(-c3cc(-c4ccc(C(=O)N5CC(C#N)C5)nc4)no3)c2cc1F [A96, 1-(5-{5-[5-fluoro-6-(2-methoxy-ethoxy)-1H-indazol-3-yl]-isoxazol-3-yl}-pyridine-2-carbonyl)-azetidine-3-carbonitrile] | 
4 | 1.7 | 150 | COCCOc1cc2[nH]nc(-c3cc(-c4ccc(N5CCN(C)CC5)nc4)no3)c2cc1F [A39, 5-fluoro-6-(2-methoxyethoxy)-3-{3-[6-(4-methylpiperazin-1-yl)pyridin-3-yl]-1,2-oxazol-5-yl}-1H-indazole] | 
5 | 4 | 430 | COCCOc1cc2[nH]nc(-c3cc(-c4ccc(C(=O)NC5CN(C)C5)cc4)no3)c2cc1F [A73, 4-{5-[5-fluoro-6-(2-methoxyethoxy)-1H-indazol-3-yl]-1,2-oxazol-3-yl}-N-(1-methylazetidin-3-yl)benzamide] | 
6 | 12 | 340 | COCCOc1cc2[nH]nc(-c3cc(-c4ccc(C(=O)N5CC[C@@H]5C(C)(C)O)nc4)no3)c2cc1F [A119, (5-{5-[5-fluoro-6-(2-methoxy-ethoxy)-1H-indazol-3-yl]-isoxazol-3-yl}-pyridin-2-yl)-[(R)-2-(1-hydroxy-1-methyl-ethyl)-azetidin-1-yl]-methanone] | 
7 | 0.95 | 390 | COCCOc1cc2[nH]nc(-c3cc(-c4ccc(C(=O)N5CC(S(C)(=O)=O)C5)cc4)no3)c2cc1F [A29, 5-fluoro-3-{3-[4-(3-methanesulfonylazetidine-1-carbonyl)phenyl]-1,2-oxazol-5-yl}-6-(2-methoxyethoxy)-1H-indazole] | 
8 | 0.91 | 37 | COCCOc1cc2[nH]nc(-c3cc(-c4ccc(C(=O)N5CC[C@H]5CO)cc4)no3)c2cc1F [A95, [(2S)-1-(4-{5-[5-fluoro-6-(2-methoxyethoxy)-1H-indazol-3-yl]-1,2-oxazol-3-yl}benzoyl)azetidin-2-yl]methanol] | 
9 | 0.79 | 58 | COCCOc1cc2[nH]nc(-c3cc(-c4ccc(C(=O)N5CCOCC5)cc4)no3)c2cc1F [A104, 5-fluoro-6-(2-methoxyethoxy)-3-{3-[4-(morpholine-4-carbonyl)phenyl]-1,2-oxazol-5-yl}-1H-indazole] | 
10 | 54 |  | COCCOc1cc2[nH]nc(-c3cc(-c4ccc(N5CCS(=O)(=O)CC5)cc4)no3)c2cc1F [A122, 4-(4-{5-[5-fluoro-6-(2-methoxyethoxy)-1H-indazol-3-yl]-1,2-oxazol-3-yl}phenyl)-1lambda6-thiomorpholine-1,1-dione] | 
11 | 69 |  | COCCOc1cc2[nH]nc(-c3cc(-c4ncc(C(=O)N5CC(F)C5)s4)no3)c2cc1F [A86, 5-fluoro-3-{3-[5-(3-fluoroazetidine-1-carbonyl)-1,3-thiazol-2-yl]-1,2-oxazol-5-yl}-6-(2-methoxyethoxy)-1H-indazole] | 
12 | 27 |  | COCCOc1cc2[nH]nc(-c3cc(-c4ccc(OC)nc4)no3)c2cc1F [A130, 5-fluoro-6-(2-methoxy-ethoxy)-3-[3-(6-methoxy-pyridin-3-yl)-isoxazol-5-yl]-1H-indazole] | 
13 | 13 |  | COCCOc1cc2[nH]nc(-c3cc(-c4cncs4)no3)c2cc1F [A48, 5-fluoro-6-(2-methoxyethoxy)-3-[3-(1,3-thiazol-5-yl)-1,2-oxazol-5-yl]-1H-indazole] | 

The remaining lines, values behind:

Row | SMILES | IC50 (c-Kit(V654A); Table 1, 200 μM ATP) [nM] | IC50 [1, 3] [nM] | other results
14 | COCCOc1cc2[nH]nc(-c3cc(-c4ccc(C(=O)N5CCOC[C@H]5C)cc4)no3)c2cc1F [compound 114] |  |  | IC50 (c-Kit(V654A); [2]): 0.91 nM; IC50 [1, 2]: 56 nM
15 | COCCOc1cc2[nH]nc(-c3cc(-c4ccc(C(=O)N5CCC[C@H]5CO)cc4)no3)c2cc1F [drawing 57, reference compound] |  |  | IC50 (c-Kit(V654A); [4]): 8.5 nM; IC50 [1, 4]: 910 nM
16 | COCCOc1cc2[nH]nc(-c3cc(-c4ccc(C(=O)N5CC(c6nncn6CCOC)C5)cc4)no3)c2cc1F [A195, 5-fluoro-6-(2-methoxyethoxy)-3-[3-(4-{3-[4-(2-methoxyethyl)-4H-1,2,4-triazol-3-yl]azetidine-1-carbonyl}phenyl)-1,2-oxazol-5-yl]-1H-indazole] | 14 | 710 | 
17 | COCCOc1cc2[nH]nc(-c3cc(-c4ccc(C(=O)N5CCN(C)C(=O)C5)cc4)no3)c2cc1F [A116, 4-(4-{5-[5-fluoro-6-(2-methoxyethoxy)-1H-indazol-3-yl]-1,2-oxazol-3-yl}benzoyl)-1-methylpiperazin-2-one] | 4.1 | 120 | 
18 | COCCOc1cc2[nH]nc(-c3cc(-c4ncc(C(=O)N5CC(N6CCOCC6)C5)s4)no3)c2cc1F [A83, 5-fluoro-6-(2-methoxyethoxy)-3-(3-{5-[3-(morpholin-4-yl)azetidine-1-carbonyl]-1,3-thiazol-2-yl}-1,2-oxazol-5-yl)-1H-indazole] | 76 |  | 
19 | COCCOc1cc2[nH]nc(-c3cc(-c4ccc(C(=O)N5CCOC[C@H]5CO)cc4)no3)c2cc1F [A105, [(3R)-4-(4-{5-[5-fluoro-6-(2-methoxyethoxy)-1H-indazol-3-yl]-1,2-oxazol-3-yl}benzoyl)morpholin-3-yl]methanol] | 1.2 | 140 | 
20 | COCCOc1ccc2c(-c3cn(-c4ccc(C(=O)N5CCN(C)C[C@@H]5C)cc4)nn3)n[nH]c2c1 [reference compound] |  |  | IC50 (c-Kit(V654A); [4]): 6.1 nM; IC50 [1, 4]: 320 nM
21 | COCCOc1cc2[nH]nc(-c3cc(-c4ccc(C(=O)N5CC(N6CCOC[C@@H]6C)C5)cc4)no3)c2cc1F [A200, 5-fluoro-6-(2-methoxyethoxy)-3-[3-(4-{3-[(3S)-3-methylmorpholin-4-yl]azetidine-1-carbonyl}phenyl)-1,2-oxazol-5-yl]-1H-indazole] | 1.3 | 19 | 
22 | COCCOc1cc2[nH]nc(-c3cc(-c4ccc(C(=O)N5CCC6(CCOC6)C5)cc4)no3)c2cc1F (stereo not shown) [A157, 7-(4-{5-[5-fluoro-6-(2-methoxyethoxy)-1H-indazol-3-yl]-1,2-oxazol-3-yl}benzoyl)-2-oxa-7-azaspiro[4.4]nonane] | 0.44 | 23 | 
23 | COC(CO)COc1cc2[nH]nc(-c3cc(-c4ccc(C(=O)N(C)C)cc4)no3)c2cc1F (stereo not shown) [A49, 4-{5-[5-fluoro-6-(3-hydroxy-2-methoxypropoxy)-1H-indazol-3-yl]-1,2-oxazol-3-yl}-N,N-dimethylbenzamide] | 1.9 | 500 | 
24 | CC(C)(O)C1CCCN1C(=O)c1ccc(-c2cc(-c3n[nH]c4cc(C(F)(F)F)ccc34)on2)cc1 (stereo not shown) [A1, 2-[1-(4-{5-[6-(trifluoromethyl)-1H-indazol-3-yl]-1,2-oxazol-3-yl}benzoyl)pyrrolidin-2-yl]propan-2-ol] | 15 | 350 | 
25 | COCCOc1cc2[nH]nc(-c3cn(-c4ccc(C(=O)N5CCC[C@H]5C(C)(C)O)cc4)nn3)c2cc1F [reference compound] |  |  | IC50 (c-Kit(V654A); [4]): 2.5 nM; IC50 [1, 4]: 79 nM
26 | COC(=O)c1ccc2c(-c3cc(-c4ccc(C(=O)N(C)C)cc4)no3)n[nH]c2c1 [A19, methyl 3-{3-[4-(dimethylcarbamoyl)phenyl]-1,2-oxazol-5-yl}-1H-indazole-6-carboxylate] | 8.2 |  | 
27 | COCCOc1cc2[nH]nc(-c3cn(-c4ccc(C(=O)N5CCOCC5)cc4)nn3)c2cc1F [reference compound] |  |  | IC50 [1, 4]: 490 nM
28 | COCCOc1cc2[nH]nc(-c3cn(-c4ccc(C(=O)N(C)C)cc4)nn3)c2cc1F [reference compound] |  |  | IC50 (c-Kit(V654A); [4]): 11 nM
29 | CNC(=O)c1ccc2c(-c3cc(-c4ccc(C(=O)N(C)C)cc4)no3)n[nH]c2c1 [A24, 3-[3-(4-dimethylcarbamoyl-phenyl)-isoxazol-5-yl]-1H-indazole-6-carboxylic acid methylamide] | 88 |  | 
